Legend:
[1] = molecular target: T1, FAAH (Homo sapiens, UniProt O00519); experiment: In vitro FAAH inhibitory activity using U-937 microsomal fraction (AAMCA substrate, fluorescence); type: biochemical; conditions: 6 μg/well, 120 min incubation at room temperature, read-out: FAAH Inhibitory Activity IC50 U-937 microsome
T1 construct: the U-937 microsomal fraction (final concentration of 6 μg/well) prepared in (1); endogenous in cells; host or cells: U-937 cells (microsomal fraction)
T1 sequence (O00519 1-579): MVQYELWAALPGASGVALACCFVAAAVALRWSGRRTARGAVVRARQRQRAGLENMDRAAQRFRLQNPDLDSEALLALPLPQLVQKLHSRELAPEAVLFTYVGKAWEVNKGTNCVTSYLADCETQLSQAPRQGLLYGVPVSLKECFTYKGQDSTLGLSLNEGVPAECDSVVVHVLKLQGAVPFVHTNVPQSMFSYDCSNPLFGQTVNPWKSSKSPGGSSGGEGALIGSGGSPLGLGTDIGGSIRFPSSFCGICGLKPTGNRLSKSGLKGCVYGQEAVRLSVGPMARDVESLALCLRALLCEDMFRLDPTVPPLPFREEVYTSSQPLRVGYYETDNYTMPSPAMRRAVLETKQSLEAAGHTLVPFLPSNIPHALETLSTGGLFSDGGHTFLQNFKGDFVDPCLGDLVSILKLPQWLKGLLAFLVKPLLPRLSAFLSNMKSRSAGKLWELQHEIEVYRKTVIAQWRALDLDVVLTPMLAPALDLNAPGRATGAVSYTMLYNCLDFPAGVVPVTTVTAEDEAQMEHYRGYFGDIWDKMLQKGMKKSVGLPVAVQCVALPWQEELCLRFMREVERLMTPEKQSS
Method: The cultured U-937 cells were harvested, and 0.33-fold volume of buffer solution (50 mmol/L HEPES-NaOH (pH 7.4), 1 mmol/L EDTA, Complete EDTA-free (Roche Diagnostics)) was added to the cells, which was suspended and homogenized. After ultrasonication, the cells were further homogenized and centrifuged (600 g, 10 mins., 4° C.) to collect the supernatant. The supernatant collected was again centrifuged (12000 g, 20 mins., 4° C.), and the supernatant was ultracentrifuged (100000 g, 60 mins., 4° C.) to collect the precipitates. The precipitates were suspended in a buffer solution (50 mmol/L HEPES-NaOH (pH 7.4), 1 mmol/L EDTA) of 5-fold volume with respect to the wet weight of the precipitates to quantify the protein level with the BCA Protein Assay (PIERCE).
(§1) In a 384 well plate (Corning), were added the dilutions of compounds to be tested in various concentrations with 30 μL of a buffer solution (50 mmol/L HEPES (pH 7.4), 1 mmol/L EDTA, 0.1% bovine serum albumin) and the U-937 microsomal fraction (final concentration of 6 μg/well) prepared in (1) or the rat brain microsomal fraction (final concentration of 4 μg/well) prepared in (2), followed by preincubation for 5 minutes at room temperature. AAMCA (SIGMA, (final concentration of 4 mmol/L) as a substrate was added thereto, and the U-937 microsomal fraction was incubated for 120 minutes and the rat brain microsomal fraction for 30 minutes, at room temperature. Before and after the incubation, fluorescence counts were measured using EnVision 2000 (Perkin Elmer) at an excitation wavelength of 355 nm with an emission wavelength of 460 nm to calculate the difference. The count of the well added with the solvent in place of the compound tested and the count of the well added with no microsome were made 0% and 100%, respectively, and the inhibitory activity of each compound tested was determined.
(§2) The FAAH inhibitory activity of the test compound was expressed by IC50 value. The compound of the present invention showing the IC50 value smaller than 0.1 μmol/L, the compound showing the IC50 value not smaller than 0.1 μmol/L and smaller than 1 μmol/L and the compound showing the IC50 value not smaller than 1 μmol/L were designated as +++, ++ and +, respectively, which are shown in TABLE 1.

[2] = molecular target: T2, FAAH (Rattus norvegicus, UniProt P97612); experiment: In vitro FAAH inhibitory activity using rat brain microsomal fraction (AAMCA substrate, fluorescence); type: biochemical; conditions: 4 μg/well, 30 min incubation at room temperature, read-out: FAAH Inhibitory Activity IC50 Rat brain microsome
T2 construct: the rat brain microsomal fraction (final concentration of 4 μg/well) prepared in (2); from tissue; host or cells: brain of male Sprague-Dawley rats (microsomal fraction)
T2 sequence (P97612 1-579): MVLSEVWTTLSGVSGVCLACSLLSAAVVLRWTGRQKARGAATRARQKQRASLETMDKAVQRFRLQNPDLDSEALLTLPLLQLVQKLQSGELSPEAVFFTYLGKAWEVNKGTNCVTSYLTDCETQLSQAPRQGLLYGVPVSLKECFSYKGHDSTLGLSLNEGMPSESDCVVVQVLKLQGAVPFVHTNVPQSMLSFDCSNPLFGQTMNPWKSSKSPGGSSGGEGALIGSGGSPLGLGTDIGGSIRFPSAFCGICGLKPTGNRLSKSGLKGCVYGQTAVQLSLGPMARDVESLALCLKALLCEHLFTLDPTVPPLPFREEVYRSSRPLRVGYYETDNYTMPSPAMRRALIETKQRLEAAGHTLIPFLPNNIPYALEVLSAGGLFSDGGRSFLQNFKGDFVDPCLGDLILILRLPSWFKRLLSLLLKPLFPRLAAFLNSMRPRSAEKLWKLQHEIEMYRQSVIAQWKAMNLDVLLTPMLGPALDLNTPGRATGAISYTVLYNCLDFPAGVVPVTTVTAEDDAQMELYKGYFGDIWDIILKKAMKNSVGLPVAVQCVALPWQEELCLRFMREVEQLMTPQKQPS
Method: Male Sprague-Dawley (SD) rats of 10 weeks old were sacrificed by decapitation and the brains were removed. To the brains was added a buffer solution (50 mmol/L HEPES (pH 8.0), 1 mmol/L EDTA, 0.32 mol/L sucrose, Complete EDTA-free (Roche Diagnostics)) of 5-fold volume with respect to the brain wet weight, which was homogenized in a Potter homogenizer. The homogenate was centrifuged (9000 g, 10 mins., 4° C.) to collect the supernatant. The supernatant was further ultracentrifuged (105000 g, 60 mins., 4° C.) to collect the precipitates. The precipitates were suspended in a buffer solution (50 mmol/L HEPES (pH 8.0), 1 mmol/L EDTA) of ¼ volume with respect to the wet weight of the precipitates to quantify the protein level with the BCA Protein Assay (PIERCE).
as §1, §2

IC50 [1] [nM]	IC50 [2] [nM]	Molecule
< 100	100 to 1000	Cc1ccc(NC(=O)N2CCN(C3CCOc4cc(C(F)(F)F)ccc43)CC2)cn1 (centres unmarked) [Example 18, N-(6-Methyl-pyridine-3-yl)-4-[7-(trifluoromethyl)-3,4-dihydro-2H-1-benzopyran-4-yl]piperazine-1-carboxamide]
> 1000	> 1000	O=C(Nc1nccs1)N1CCN(C2CCOc3cc(C(F)(F)F)ccc32)CC1 (centres unmarked) [Example 22, N-(1,3-Thiazol-2-yl)-4-[7-(trifluoromethyl)-3,4-dihydro-2H-1-benzopyran-4-yl]piper azine-1-carboxamide]
< 100	< 100	O=C(Nc1cccnc1)N1CCN(C2CCOc3c2ccc(F)c3F)CC1 (centres unmarked) [Example 35, 4-(7,8-Difluoro-3,4-dihydro-2H-chromen-4-yl)-N-(pyridine-3-yl)piperazine-1-carboxamide]
< 100	< 100	O=C(Nc1cnccn1)N1CCN(C2CCOc3cc(C(F)(F)F)ccc32)CC1 (centres unmarked) [Example 52, N-(Pyrazin-2-yl)-4-[7-(trifluoromethyl)-3,4-dihydro-2H-chromen-4-yl]piperazine-1-carboxamide]
< 100	100 to 1000	O=C(Nc1cccnn1)N1CCC(N2CCOc3cc(C(F)(F)F)ccc32)CC1 [Example 24, N-Pyridazin-3-yl-4-[7-(trifluoromethyl)-2,3-dihydro-1,4-benzoxazin-4-yl]piperidine-1-carboxamide]

Continued, molecule first:

Molecule	IC50 [1] [nM]	IC50 [2] [nM]
N-(6-Methoxypyridazin-2-yl)-4-[7-(trifluoromethyl)-3,4-dihydro-2H-1-benzopyran-4-yl]piperazine-1-carboxamide [Example 21]	100 to 1000	100 to 1000
O=C(Nc1ccccc1)N1CCN(C2CCOc3cc(C(F)(F)F)ccc32)C(=O)C1 (centres unmarked) [Example 15, N-Phenyl-3-yl-4-[7-(trifluoromethyl)-3,4-dihydro-2H-1-benzopyran-4-yl]-3-oxo-piperazine-1-carboxamide]	100 to 1000	100 to 1000
O=C(Nc1ccccc1)N1CCC(c2noc3cc(F)ccc23)CC1 [Example 1, N-Phenyl-4-(6-fluoro-1,2-benzisoxazo-3-yl)piperidine-1-carboxamide]	100 to 1000	> 1000
O=C(Nc1cccnc1)N1CCN(C2CCOc3cc(C(F)(F)F)ccc32)CC1 (centres unmarked) [Example 17, N-Pyridine-3-yl-4-[7-(trifluoromethyl)-3,4-dihydro-2H-1-benzopyran-4-yl]piperazine-1-carboxamide]	< 100	< 100
O=C(Nc1cccnn1)N1CCN(C2CCOc3cc(C(F)(F)F)c(F)cc32)CC1 (centres unmarked) [Example 12, N-Pyridazin-3-yl-4-[6-fluoro-7-(trifluoromethyl)-3,4-dihydro-2H-1-benzopyran-4-yl]piperazine-1-carboxamide]	100 to 1000	< 100
O=C(Nc1cccnn1)N1CCN(C2CCOc3ccc(Oc4ccc(C(F)(F)F)cn4)cc32)CC1 (centres unmarked) [Example 5, N-Pyridazin-3-yl-4-[6-[[5-(trifluoromethyl)-2-pyridinyl]oxy]-3,4-dihydro-2H-1-benzopyran-4-yl]piperazine-1-carboxamide]	100 to 1000	100 to 1000
O=C(Nc1cccnn1)N1CCN(C2CCCOc3cc(C(F)(F)F)ccc32)CC1 (centres unmarked) [Example 10, N-Pyridazin-3-yl-4-[8-(trifluoromethyl)-2,3,4,5-tetrahydrobenz-1-oxepin-5-yl]piperazine-1-carboxamide]	100 to 1000	100 to 1000
CC1(C)CC(N2CCN(C(=O)Nc3cccnn3)CC2)c2ccc(C(F)(F)F)cc2O1 (centres unmarked) [Example 9, N-Pyridazin-3-yl-4-[2,2-dimethyl-7-(trifluoromethyl)-3,4-dihydro-2H-1-benzopyran-4-yl]piperazine-1-carboxamide]	> 1000	100 to 1000
